Like-named read-outs stand apart in the source and are kept apart here.
Target: T1, LRRK2 (endogenous, HiBit tagged) (Homo sapiens, UniProt Q5S007)
T1 construct: endogenous in cells; host or cells: HEK293 cells with HiBit knock-in at the endogenous LRRK2 locus, stably expressing firefly luciferase
Experiment: Endogenous LRRK2 degradation assay, endogenous gene C-terminally HiBit-tagged in HEK293 cells (Nano-Glo Dual Luciferase)
Assay type: cell-based
Settings: endogenous HiBit-tagged LRRK2 in HEK293 cells, 24 hours treatment
Text: Exemplary Assay for Testing LRRK2 Degradation Driven by Exemplary Hetero-Bifunctional Compounds Designed to Target LRRK2
The assay measures the degradation of LRRK2 in cells where the C-terminus (3′) of the endogenous gene has been tagged with a HiBit sequence in HEK293 cells. The cells also express firefly luciferase, expressed from a Cytomegalovirus promoter and introduced into the HiBit tagged cells and stably expressed. The Nano-Glo® Dual Luciferase Reporter Assay System (Promega™, Madison, WI) was utilized.
Day 1—Preparation of Compound and Assay Plates. Two sets of plates were prepared: a triplicate set for the HiBit assay in white 384-well plates and a triplicate set of plate in black 384-well plates for the Alamar Blue cell viability assay. Briefly, the growth media (DMEM+Glutamax-10% fetal bovine serum-1% Penicillin-Streptomicin) from two T128 flasks was aspirated from the flasks. Cells were washed with Dulbecco's Phosphate Buffered Saline (dPBS) and aspirated. Trypsin (3 mL per flask) was added and the flasks were incubated for 2-3 minutes.
Ten mL of OptiMEM-10% fetal bovine-1% penicillin-streptomycin (hereinafter, “OptiMEM media”) was added to the flask and the cells and transferred to a 50 mL conical tube. A cell count (25 ul of cell into Effendorf vial+25 ul of Trypan Blue Stain) was performed and the cell density adjusted to 15,000 cell/45 μl/well (3.33×10^5/mL) in OptiMEM media.
Fourty-five microliters of the cell suspension (15,000 cells) was aliquoted to each well of the white 384-well plate. The plates incubated at room temperature for 10 minutes before being placed in the 37° C.+5% CO2 incubator overnight
Day 2—Compound Treatment. Exemplary compounds were prepared at a 1 mM starting concentration and 1:3 serial dilution for 11 points CRC prepared and stored in the freezer. The Master Compound Plate was thawed overnight at room temperature. DMSO (20 μL) was added into column 24 of the Master Compound Plate for negative control and 20 μL of 300 μM of Compound 4 in column 23 as positive control.
Intermediate Compound Plate with 4% DMSO in OptiMEM Media. DMSO was added to warm OptiMEM media to achieve a 4% DMSO solution (approximately 50 mL/plate). One-hundred microliters of the OptiMEM-4% DMSO was aliquoted to each well of 384-Well Deep Well Microplates.
The Master Compound Plate and the Intermediate Compound Plate were spun down.
One microliter of compound from the Master Compound Plate was transferred into the Intermediate plate (a 1:100 dilution). The diluted mixture was mixed and 5 μL transferred into the assay plate (a 1:10 dilution) for the final starting concentration of 1 μM. The Treated Assay plates were incubated for 24 hours at 37° C.+5% CO2. The Master Compound Plate was sealed and store at room temperature for a second run that was performed within a week.
Day 3—HiBit Assay. Five microliters of Alamar Blue was added to each well of the black 384-well plates. The plates were incubated for 2 hours in the incubator (37° C.+5% CO2) and at room temperature for one hour. Fluorescence of each plate was read on a plated reader for the Alamar Blue viability assay.
One set of white assay plates was warmed to room temperature (45 minute).
The One Glo luciferase mixture was prepared. The media from white 384-well assay plates was aspirated. Twenty-five μL of the One Glo luciferase mixture was added to each well of the assay plates. The plates were incubated on the bench (room temperature) for 45 minutes, including 10 minutes of shaking at 700 rpm. The luminescence of each plate was read on a plate reader.
1:100 DLR substrate and 1:100 LgBiT Protein dilution were added to the Promega Stop and Glo buffer and mixed just before addition to assay plates. Twenty-five microliters of Stop and Glo mixture was added to each well. Assay plates incubated for at least 45 minutes, including 10 minutes of shaking at 700 rpm. The luminescence of each plate was read on a plate reader.
Analysis of LRRK2 HiBit Screening assays. […]

[1] = read-out: **Endogenous WT Dmax (%)

T1 sequence (Q5S007 whole entry): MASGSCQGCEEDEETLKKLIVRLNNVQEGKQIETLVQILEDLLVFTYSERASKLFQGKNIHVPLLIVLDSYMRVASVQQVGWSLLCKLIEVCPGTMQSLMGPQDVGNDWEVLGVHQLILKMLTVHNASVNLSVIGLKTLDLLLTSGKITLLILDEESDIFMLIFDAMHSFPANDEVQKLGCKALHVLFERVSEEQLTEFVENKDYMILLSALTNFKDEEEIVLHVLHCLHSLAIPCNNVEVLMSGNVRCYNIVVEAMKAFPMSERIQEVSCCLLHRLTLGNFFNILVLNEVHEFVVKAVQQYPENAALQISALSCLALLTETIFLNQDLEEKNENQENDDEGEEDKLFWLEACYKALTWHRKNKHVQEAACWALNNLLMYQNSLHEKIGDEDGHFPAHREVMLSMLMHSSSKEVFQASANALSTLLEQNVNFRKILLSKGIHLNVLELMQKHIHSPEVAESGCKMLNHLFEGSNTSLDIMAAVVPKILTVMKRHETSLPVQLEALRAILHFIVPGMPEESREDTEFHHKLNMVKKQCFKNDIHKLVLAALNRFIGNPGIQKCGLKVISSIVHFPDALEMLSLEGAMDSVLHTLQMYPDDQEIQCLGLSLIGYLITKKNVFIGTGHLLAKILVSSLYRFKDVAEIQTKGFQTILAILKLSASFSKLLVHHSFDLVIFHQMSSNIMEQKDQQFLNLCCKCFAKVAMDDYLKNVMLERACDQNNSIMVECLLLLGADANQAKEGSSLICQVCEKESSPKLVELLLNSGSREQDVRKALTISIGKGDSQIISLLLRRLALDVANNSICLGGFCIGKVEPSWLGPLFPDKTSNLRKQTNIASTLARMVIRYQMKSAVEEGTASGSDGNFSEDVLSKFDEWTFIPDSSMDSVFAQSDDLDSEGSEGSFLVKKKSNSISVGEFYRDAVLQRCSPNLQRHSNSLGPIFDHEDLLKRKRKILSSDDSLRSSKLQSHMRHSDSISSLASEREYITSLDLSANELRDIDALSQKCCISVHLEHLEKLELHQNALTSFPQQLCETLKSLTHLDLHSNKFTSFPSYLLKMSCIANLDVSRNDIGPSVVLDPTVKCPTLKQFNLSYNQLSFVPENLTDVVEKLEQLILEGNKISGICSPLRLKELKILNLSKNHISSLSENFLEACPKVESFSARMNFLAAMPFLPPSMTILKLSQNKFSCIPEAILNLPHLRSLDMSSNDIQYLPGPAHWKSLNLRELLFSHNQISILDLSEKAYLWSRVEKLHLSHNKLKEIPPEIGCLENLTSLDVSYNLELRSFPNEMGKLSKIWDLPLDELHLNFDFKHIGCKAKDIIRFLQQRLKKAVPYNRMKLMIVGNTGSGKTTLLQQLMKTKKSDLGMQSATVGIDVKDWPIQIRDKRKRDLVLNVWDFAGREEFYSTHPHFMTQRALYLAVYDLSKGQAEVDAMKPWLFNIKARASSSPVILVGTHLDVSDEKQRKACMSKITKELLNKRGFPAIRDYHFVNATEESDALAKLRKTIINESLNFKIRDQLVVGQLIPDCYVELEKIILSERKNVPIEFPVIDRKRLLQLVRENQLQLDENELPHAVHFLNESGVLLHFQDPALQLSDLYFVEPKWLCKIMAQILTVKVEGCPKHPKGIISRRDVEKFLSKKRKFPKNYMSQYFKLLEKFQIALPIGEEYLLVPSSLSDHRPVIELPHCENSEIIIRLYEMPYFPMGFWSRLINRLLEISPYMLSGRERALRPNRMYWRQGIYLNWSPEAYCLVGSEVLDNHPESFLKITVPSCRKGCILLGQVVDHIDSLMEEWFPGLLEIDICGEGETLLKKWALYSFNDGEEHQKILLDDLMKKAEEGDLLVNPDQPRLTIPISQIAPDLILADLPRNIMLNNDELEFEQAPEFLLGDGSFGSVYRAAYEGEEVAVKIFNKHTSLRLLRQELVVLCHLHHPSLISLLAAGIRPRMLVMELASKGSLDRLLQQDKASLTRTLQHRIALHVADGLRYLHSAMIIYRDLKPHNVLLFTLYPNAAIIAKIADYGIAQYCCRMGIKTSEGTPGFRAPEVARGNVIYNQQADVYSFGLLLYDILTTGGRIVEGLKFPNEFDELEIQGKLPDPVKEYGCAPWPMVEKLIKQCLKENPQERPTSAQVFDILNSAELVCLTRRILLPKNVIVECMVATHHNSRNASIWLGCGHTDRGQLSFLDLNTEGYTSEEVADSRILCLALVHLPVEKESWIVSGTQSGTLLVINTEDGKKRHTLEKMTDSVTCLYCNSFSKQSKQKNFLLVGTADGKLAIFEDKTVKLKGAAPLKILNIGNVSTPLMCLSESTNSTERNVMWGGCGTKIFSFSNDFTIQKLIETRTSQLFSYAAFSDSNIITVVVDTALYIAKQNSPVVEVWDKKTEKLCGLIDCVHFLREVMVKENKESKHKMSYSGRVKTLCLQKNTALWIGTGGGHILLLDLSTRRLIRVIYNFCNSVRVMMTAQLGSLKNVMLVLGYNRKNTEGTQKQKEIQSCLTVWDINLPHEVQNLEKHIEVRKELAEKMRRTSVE

Structure (SMILES) | DC50 (read-out: Endogenous WT DC50) | Dmax (read-out: Endogenous WT Dmax) | Dmax [1] | DC50 (read-out: *Endogenous WT DC50)
CC1(Oc2ccc3n[nH]c(-c4cc(N5CCC(O[C@H]6C[C@H](N7CC[C@@H](c8ccc9c(c8F)CN(C8CCC(=O)NC8=O)C9=O)[C@@H](F)C7)C6)CC5)ncn4)c3c2)CC1 (stereo partly shown) [Compound 297, 3-{4-fluoro-5-[(3r,4s)-3-fluoro-1-[(1r,3r)-3-[(1-{6-[5-(1-methylcyclopropoxy)-2H-indazol-3-yl]pyrimidin-4-yl}piperidin-4-yl)oxy]cyclobutyl]piperidin-4-yl]-1-oxo-2,3-dihydro-1H-isoindol-2-yl}piperidine-2,6-dione] |  |  | 50 to 70% | < 10 nM
COc1c(N2CCC(N3CC(F)(CC4CCN(c5cc(-c6[nH]nc7ccc(OC8(C)CC8)cc67)ncn5)CC4)C3)CC2)ccc2c1CN(C1CCC(=O)NC1=O)C2=O (stereo not shown) [Compound 345, 3-(5-(4-(3-fluoro-3-((1-(6-(5-(1-methylcyclopropoxy)-2H-indazol-3-yl)pyrimidin-4-yl)piperidin-4-yl)methyl)azetidin-1-yl)piperidin-1-yl)-4-methoxy-1-oxoisoindolin-2-yl)piperidine-2,6-dione] |  |  | 50 to 70% | < 10 nM
CC1(Oc2ccc3[nH]nc(-c4cc(N5CCC(O[C@H]6CC[C@H](CN7CCN(c8ccc9c(c8F)CN(C8CCC(=O)NC8=O)C9=O)C(C)(C)C7)CC6)CC5)ncn4)c3c2)CC1 (stereo partly shown) [Compound 378, 3-[5-(2,2-dimethyl-4-{[(1r,4r)-4-[(1-{6-[5-(1-methylcyclopropoxy)-1H-indazol-3-yl]pyrimidin-4-yl}piperidin-4-yl)oxy]cyclohexyl]methyl}piperazin-1-yl)-4-fluoro-1-oxo-2,3-dihydro-1H-isoindol-2-yl]piperidine-2,6-dione] | < 10 nM | 50 to 70% |  | 
CC1(Oc2ccc3[nH]nc(-c4cc(N5CCC(CN6CCC(F)(CC7CCN(c8c(F)cc9c(c8F)CN(C8CCC(=O)NC8=O)C9=O)CC7)CC6)CC5)ncn4)c3c2)CC1 (stereo not shown) [Compound 242, 3-{4,6-difluoro-5-[4-({4-fluoro-1-[(1-{6-[5-(1-methylcyclopropoxy)-1H-indazol-3-yl]pyrimidin-4-yl}piperidin-4-yl)methyl]piperidin-4-yl}methyl)piperidin-1-yl]-1-oxo-2,3-dihydro-1H-isoindol-2-yl}piperidine-2,6-dione] | < 10 nM | 50 to 70% |  | 
C[C@H]1CN(c2ccc3c(c2F)CN(C2CCC(=O)NC2=O)C3=O)CCN1C[C@H]1CC[C@H](OC2CCN(c3cc(-c4n[nH]c5ccc(OC6(C)CC6)cc45)ncn3)CC2)CC1 (stereo partly drawn) [Compound 346, 3-{4-fluoro-5-[(3S)-3-methyl-4-{[(1r,4r)-4-[(1-{6-[5-(1-methylcyclopropoxy)-1H-indazol-3-yl]pyrimidin-4-yl}piperidin-4-yl)oxy]cyclohexyl]methyl}piperazin-1-yl]-1-oxo-2,3-dihydro-1H-isoindol-2-yl}piperidine-2,6-dione] |  |  | 50 to 70% | < 10 nM
COc1c(N2CCC(O[C@H]3C[C@H](CN4CCN(c5cc(-c6[nH]nc7ccc(OC8(C)CC8)cc67)ncn5)CC4)C3)CC2)ccc2c1CN(C1CCC(=O)NC1=O)C2=O (stereo partly shown) [Compound 293, 3-(4-methoxy-1-oxo-5-{4-[(1r,3r)-3-[(4-{6-[5-(1-methylcyclopropoxy)-2H-indazol-3-yl]pyrimidin-4-yl}piperazin-1-yl)methyl]cyclobutoxy]piperidin-1-yl}-2,3-dihydro-1H-isoindol-2-yl)piperidine-2,6-dione] |  |  | 50 to 70% | < 10 nM

Further lines, results first:

DC50 (read-out: Endogenous WT DC50) | Dmax (read-out: Endogenous WT Dmax) | Dmax [1] | DC50 (read-out: *Endogenous WT DC50) | Structure (SMILES)
< 10 nM | ≥ 70% |  |  | COc1c(N2CCC(CN3CCN(CC4CCN(c5cc(-c6n[nH]c7ccc(OC8(C)CC8)cc67)ncn5)CC4)CC3)CC2)ccc2c1CN(C1CCC(=O)NC1=O)C2=O (stereo not shown) [Compound 211, 3-[4-methoxy-5-[4-[[4-[[1-[6-[5-(1-methylcyclopropoxy)-1H-indazol-3-yl]pyrimidin-4-yl]-4-piperidyl]methyl]piperazin-1-yl]methyl]-1-piperidyl]-1-oxo-isoindolin-2-yl]piperidine-2,6-dione]
 |  | 50 to 70% | < 10 nM | C[C@@H]1CN(CC2CCN(c3cc(-c4n[nH]c5cnc(OC6(C)CC6)cc45)ncn3)CC2)CCN1CC1CCN(c2ccc3c(c2F)CN(C2CCC(=O)NC2=O)C3=O)CC1 (stereo partly drawn) [Compound 272, 3-[4-fluoro-5-(4-{[(2R)-2-methyl-4-[(1-{6-[5-(1-methylcyclopropoxy)-1H-pyrazolo[3,4-c]pyridin-3-yl]pyrimidin-4-yl}piperidin-4-yl)methyl]piperazin-1-yl]methyl}piperidin-1-yl)-1-oxo-2,3-dihydro-1H-isoindol-2-yl]piperidine-2,6-dione]
 |  | 50 to 70% | < 10 nM | COc1c(N2CCC(CN3CCN(CC4CCN(c5cc(-c6n[nH]c7ccc(OC8(C)CC8)cc67)ncn5)CC4)CC3(C)C)CC2)ccc2c1CN(C1CCC(=O)NC1=O)C2=O (stereo not shown) [Compound 262, 3-{5-[4-({2,2-dimethyl-4-[(1-{6-[5-(1-methylcyclopropoxy)-1H-indazol-3-yl]pyrimidin-4-yl}piperidin-4-yl)methyl]piperazin-1-yl}methyl)piperidin-1-yl]-4-methoxy-1-oxo-2,3-dihydro-1H-isoindol-2-yl}piperidine-2,6-dione]
< 10 nM | 50 to 70% |  |  | C[C@H]1CN(CC2CCN(c3ccc4c(c3F)CN(C3CCC(=O)NC3=O)C4=O)CC2)CCN1CC1CCN(c2cc(-c3n[nH]c4ccc(OC5(C)CC5)cc34)ncn2)CC1 (stereo partly drawn) [Compound 221, 3-[4-fluoro-5-(4-{[(3S)-3-methyl-4-[(1-{6-[5-(1-methylcyclopropoxy)-1H-indazol-3-yl]pyrimidin-4-yl}piperidin-4-yl)methyl]piperazin-1-yl]methyl}piperidin-1-yl)-1-oxo-2,3-dihydro-1H-isoindol-2-yl]piperidine-2,6-dione]
 |  | ≥ 70% | < 10 nM | CC1(Oc2cc3c(-c4cc(N5CCC(CN6CCN(CC7CCN(c8ccc9c(c8F)CN(C8CCC(=O)NC8=O)C9=O)CC7)C(C)(C)C6)CC5)ncn4)n[nH]c3cn2)CC1 (stereo not shown) [Compound 270, 3-{5-[4-({2,2-dimethyl-4-[(1-{6-[5-(1-methylcyclopropoxy)-1H-pyrazolo[3,4-c]pyridin-3-yl]pyrimidin-4-yl}piperidin-4-yl)methyl]piperazin-1-yl}methyl)piperidin-1-yl]-4-fluoro-1-oxo-2,3-dihydro-1H-isoindol-2-yl}piperidine-2,6-dione]
 |  |  | < 10 nM | COc1c(N2CCC(CN3CCN(CC4CCN(c5cc(-c6n[nH]c7cc(F)c(OC8(C)CC8)cc67)ncn5)CC4)CC3(C)C)CC2)ccc2c1CN(C1CCC(=O)NC1=O)C2=O (stereo not shown) [Compound 349, 3-{5-[4-({4-[(1-{6-[6-fluoro-5-(1-methylcyclopropoxy)-1H-indazol-3-yl]pyrimidin-4-yl}piperidin-4-yl)methyl]-2,2-dimethylpiperazin-1-yl}methyl)piperidin-1-yl]-4-methoxy-1-oxo-2,3-dihydro-1H-isoindol-2-yl}piperidine-2,6-dione]
 |  | 50 to 70% | < 10 nM | COc1c(N2CCC(CN3CCN(CC4CCN(c5cc(-c6n[nH]c7cnc(OC8(C)CC8)cc67)ncn5)CC4)CC3(C)C)CC2)ccc2c1CN(C1CCC(=O)NC1=O)C2=O (stereo not shown) [Compound 277, 3-{5-[4-({2,2-dimethyl-4-[(1-{6-[5-(1-methylcyclopropoxy)-1H-pyrazolo[3,4-c]pyridin-3-yl]pyrimidin-4-yl}piperidin-4-yl)methyl]piperazin-1-yl}methyl)piperidin-1-yl]-4-methoxy-1-oxo-2,3-dihydro-1H-isoindol-2-yl}piperidine-2,6-dione]

From patent US12559506B2, “Indazole based compounds and associated methods of use” (Arvinas Operations, Inc., priority 2021, dated 2026)
